Laboratory results taken from patent US11452704B2, “Prevention and treatment of muscle wasting with ketone supplementation” (UNIVERSITY OF SOUTH FLORIDA, priority 2017, dated 2022).

What was measured:
[1] = test system: cancer induced tissue wasting (muscle and fat), VM-M3 model of metastatic cancer; assay: VM-M3 model of metastatic cancer: muscle mass as ratio of total calories consumed (Example 2); type: in vivo, VM/Dk animals; details: with standard diet, vs standard diet or ketogenic diet; 21 days post-cancer implantation; FIG. 1
Source text: FIG. 1 depicts ratios of muscle mass to amount of calories consumed within a cancer cachexia VM-M3 modeling system, specifically with subjects having been fed standard diet, ketogenic diet, and ketone diester.
Taking a model system of cancer induced tissue wasting (muscle and fat), R,S 1,3 butanediol diacetoacetate+standard diet, ketogenic diet, and standard diet were applied. VM/Dk animals were matched for sex, age, and bodyweight to ensure controlled groups. Animals were implanted with VM-M3 cell in the left flank to create the VM-M3 model of metastatic cancer. Once implanted, primary tumor forms at site of implantation, and then cells metastasize to all major organ systems that results in tissue wasting. Animals were harvested at 21 days post-cancer implantation to evaluate tissue wasting. […] This confirms that R,S 1,3 butanediol diacetoacetate is an anti-catabolic/anti-tissue wasting compound.

[2] = test system: tissue catabolism/atrophy/cachexia that is induced by LPS; assay: LPS-induced catabolism, single gavage, bodyweight tracked for 2 weeks (Example 4); type: in vivo, VM/Dk mice
Source text: FIG. 3A depicts acute percent bodyweight changes that accompany Lipopolysaccharide after treatment with control or ketone supplementation in VM/Dk mice.
FIG. 3B depicts acute bodyweight changes that accompany Lipopolysaccharide after treatment with control or ketone supplementation in VM/Dk mice.
FIG. 3C depicts chronic percent bodyweight changes that accompany Lipopolysaccharide after treatment with control or ketone supplementation in VM/Dk mice.
FIG. 3D depicts the difference in bodyweight with control treatment at baseline versus each day following Lipopolysaccharide treatment.
FIG. 3E depicts the difference in bodyweight with ketone supplement treatment at baseline versus each day following Lipopolysaccharide treatment.
FIGS. 3A-E depict results from Weight matched animals who were administered 10 mg/kg LPS intraperitoneally. After intraperitoneal LPS injection, 4 mL/kg of water (n=4) or R/S 1,3 Butanediol Acetoacetate Diester (Ketone Diester; n=5) were intragastrically gavaged into animals one time. Bodyweight and food intake were tracked for 2 weeks post LPS administration. […] FIG. 3D-E depicts animals administered water gavage post LPS were not able to recovery to baseline bodyweight levels until 11 days post LPS administration.

[3] = test system: anorexia induced by catabolic/atrophy/cachexic stimulus (LPS); assay: LPS-induced anorexia, food intake (Example 5); type: in vivo; details: 10 mg/kg LPS i.p.; one-time dose 4 mL/kg intragastric gavage vs water; FIG. 4A-B
Description: FIG. 4A depicts the difference in anorexia symptoms following Lipopolysaccharide administration with treatment with control or ketone supplementation.
FIG. 4B depicts the difference in caloric intake following Lipopolysaccharide administration with treatment with control or ketone supplementation.
FIG. 4A-B depicts weight matched animals who were administered 10 mg/kg LPS intraperitoneally. After intraperitoneal LPS injection, 4 mL/kg of water (n=4) or R/S 1,3 Butanediol Acetoacetate Diester (Ketone Diester; n=5) were intragastrically gavaged into animals. Food Intake was tracted to determine if a one-time does of Ketone Diester was able to reduce anorexia experiences post catabolic/atrophy/cachexic stimulus (10 mg/kg LPS intraperitoneally).

[4] = test system: tissue catabolism/atrophy/cachexia that is induced by LPS; assay: LPS-induced catabolism, pair fed animals, multiple treatments (Example 6); type: in vivo
Description: FIG. 5A depicts the difference in bodyweight following Lipopolysaccharide administration with multiple treatments with control or ketone supplementation with calories controlled across groups.
FIG. 5B depicts the difference in percent bodyweight following Lipopolysaccharide administration with multiple treatments with control or ketone supplementation with calories controlled across groups.
FIG. 5A-B depicts weight matched animals who were administered 10 mg/kg LPS intraperitoneally. After intraperitoneal LPS injection, 4 mL/kg of water (n=4) or R/S 1,3 Butanediol Acetoacetate Diester (Ketone Diester; n=4) were intragastrically gavaged into animals. Animals were pair fed to ensure calories were equivalent between groups to remove influence of caloric intake on tissue catabolism/atrophy/cachexia. […] This effect was retained for a minimum of 2 days following catabolic/atrophy/cachexia stimulus (10 mg/kg LPS intraperitoneal). The ability of Ketone Diester to attenuate catabolism was independent of caloric intake/anorexia induced by LPS.

cancer cachexia (VM-M3) = assay: Cancer cachexia (VM-M3), skeletal muscle weight as ratio to baseline bodyweight (Example 7); type: in vivo; details: ketone diester in standard diet food at 30% by weight; 21 days post cancer injection; vs cancer on standard diet; FIG. 6A-B
Source text: FIG. 6A depicts the difference in skeletal muscle weight following cancer cachexia administration (VM-M3) with control or ketone supplementation.
FIG. 6B depicts the difference in skeletal muscle weight following cancer cachexia administration (VM-M3) with control or ketone supplementation.
FIG. 6A-B depict weight matched animals who were split into 3 groups 1) Animals without cancer injected with vehicle on standard diet (Sham; n=11), 2) animals with cancer on standard diet (n=11), and 3) animals with cancer with ketone diester incorporated into the standard diet food at 30% by weight (n=11). Animals bodyweight was measured at baseline. Cancer groups were assessed in a validated model of cancer cachexia. At 21 days post vehicle or cancer injection, tissue were harvest and weighed. Skeletal Muscle weight was set as a ratio to baseline bodyweight to determine the differences in skeletal muscle tissue as compared to set pre-cancer timepoint.

CC(=O)CC(=O)OCCC(C)OC(=O)CC(C)=O (stereo not shown) [Ketone Diester, R/S 1,3 Butanediol Acetoacetate Diester]
percentage of muscle mass as a ratio of total calories consumed (Quad/Carcass/Absolute calories consumed) [1]: substantially higher percentage of muscle mass compared to the amount of calories consumed
bodyweight versus baseline on each day following LPS ([2]; 10 mg/kg LPS i.p., 4 mL/kg gavage, FIG. 3E (water control recovered only at 11 days)): did not significantly reduced in bodyweight
attenuation of tissue catabolism/atrophy/cachexia induced by LPS ([2]; 10 mg/kg LPS i.p., 4 mL/kg intragastric gavage one time, within 1st 24 hour post LPS, FIG. 3A): 46%
attenuation of percentage of tissue catabolism/atrophy/cachexia induced by LPS ([2]; 10 mg/kg LPS i.p., 4 mL/kg intragastric gavage one time, within 1st 24 hours post LPS, FIG. 3B): 48%
chronic tissue catabolism (percent bodyweight change) compared to control ([2]; multi-weeks post-LPS administration, FIG. 3C): significantly attenuated tissue catabolism compared to control
anorexia (food intake, caloric intake) following LPS [3]: significantly reduced the anorexia
tissue catabolism/atrophy/cachexia (bodyweight) induced by LPS, calories controlled ([4]; 10 mg/kg LPS i.p., 4 mL/kg gavage, multiple administrations, FIG. 5A-B): significantly attenuated tissue catabolism/atrophy/cachexia
duration for which the anti-catabolic effect was retained ([4]; following 10 mg/kg LPS intraperitoneal): ≥ 2 days
Gastrocnemius catabolism/atrophy/cachexia (muscle weight / baseline bodyweight) (cancer cachexia (VM-M3)): significantly attenuated
Quadricep catabolism/atrophy/cachexia (muscle weight / baseline bodyweight) (cancer cachexia (VM-M3)): significantly attenuated
